Measured values from US6838477B2, “Lactacystin analogs” (President and Fellows of Harvard College, priority 1995, dated 2005).

Tests used:
[1] = target: T1, 20S proteasome trypsin-like activity (Bos taurus, UniProt Q2TBP0); experiment: Kinetics of inhibition of 20S proteasome trypsin-like activity (Cbz-GGR-βNA); format: biochemical, bovine
T1 construct: from tissue; host or cells: bovine brain
Description: (§1) Experiments involving the proteasome were performed as follows: 20S proteasome (˜5 ng/μl) in 10 mM Tris-HCl, pH 7.5, 1 mM EDTA was incubated at 25° C. in the presence of lactacystin or lactacystin analogs in DMSO or MeOH [not exceeding 5% (v/v)]. Aliquots for fluorescence assay were removed at various times following addition of compound and diluted in 10 mM Tris-HCl, pH 7.5, 1 mM EDTA containing fluorogenic peptide substrates (100 μM final). Suc-LLVY-AMC, Cbz-GGR-βNA and […] (AMC=7-amido-4-methylcoumarin; βNA=β-naphthylamide) were used to assay for the chymotrypsin-like, trypsin-like and peptidylglutamyl-peptide hydrolyzing activities, respectively.
(§2) Fluorescent emission at 460 nm with excitation at 380 nm was measured for AMC-containing substrates, and emission at 410 nm with excitation at 335 nm was measured for βNA-containing substrates. The fluorescence assays were conducted at 25° C., each experiment was performed at least three times, and values represent mean±standard deviation.
(§3) The reversibility of the inhibitory effects was assessed by measuring residual peptidase activity after removal of excess inhibitor by extensive serial dilution/ultrafiltration.

[2] = target: 20S proteasome peptidylglutamyl-peptide hydrolyzing activity (Bos taurus, UniProt Q3MHN0)
Description: as §1, §2, §3

[3] = target: T2, 20S proteasome chymotrypsin-like activity (Bos taurus, UniProt Q32KL2); experiment: Kinetics of inhibition of 20S proteasome chymotrypsin-like activity (Suc-LLVY-AMC); format: biochemical, bovine
T2 construct: from tissue; host or cells: bovine brain
Description: as §1, §2, §3

[4] = target: Cathepsin B (Homo sapiens, UniProt P07858); experiment: Selectivity of protease inhibition: cathepsin B; format: biochemical; conditions: concentration not given
[5] = residual activity after removal of excess inhibitor by serial dilution/ultrafiltration

With `CC(C)[C@H](O)[C@@]12NC(=O)[C@H](C)[C@@H]1OC2=O` [β-Lactone, clasto-lactacystin β-lactone] the “κassoc = κobs/[I], Trypsin-like activity (Cbz-GGR-βNA)” value ([1]; compound 5 μM, 25° C.) was 208 ± 21 s^−1M^−1, the “trypsin-like activity inhibited faster than by lactacystin” value ([1]; relative to lactacystin) was 15-20 times and the “reversibility of inhibition of trypsin-like activity” value [1, 5] was “irreversibly”. For the same compound, the “κassoc = κobs/[I], Peptidylglutamyl-peptide hydrolyzing activity (Cbz-LLE-βNA)” value ([2]; compound 50 μM, 25° C.) was 59 ± 17 s^−1M^−1, the “PGPH activity inhibited faster than by lactacystin” value ([2]; relative to lactacystin) was 15-20 times and the “reversibility of inhibition of PGPH activity” value [2, 5] was “reversibly”. The “κassoc = κobs/[I], Chymotrypsin-like activity (Suc-LLVY-AMC)” value ([3]; compound 1 μM, 25° C.) was 3059 ± 478 s^−1M^−1, the “chymotrypsin-like activity inhibited faster than by lactacystin” value ([3]; relative to lactacystin) was 15-20 times and the “reversibility of inhibition of chymotrypsin-like activity” value [3, 5] was “irreversibly”. The “inhibition of cathepsin activity” value [4] was “do not inhibit”.
